Measured values reported in BigSolDB 2.1.

O=C(O)CCCC(=O)O
Details | solubility (mole fraction)
in cyclohexanone, 295.35 K | 0.17
in cyclohexanone, 299.35 K | 0.184
in cyclohexanone, 303.65 K | 0.198
in cyclohexanone, 307.75 K | 0.228
in cyclohexanone, 311.85 K | 0.251
in methanol, 287.05 K | 0.204
in methanol, 295.55 K | 0.239
in methanol, 299.15 K | 0.256
in methanol, 302.85 K | 0.274
in methanol, 306.95 K | 0.294
in methanol, 310.15 K | 0.316
in methanol, 313.45 K | 0.34
in methanol, 317.15 K | 0.37
in methanol, 321.15 K | 0.403
in methanol, 324.85 K | 0.436
in methanol, 328.95 K | 0.472
